Experimental findings from patent publication US5292742A, “Angiotensin II receptor blocking 2,3,6 substituted quinazolinones” (American Cyanamid Company, priority 1993, dated 1994) are described below.

The target in the test is T1, Angiotensin II Receptor (Bos taurus, UniProt P25104).
T1 construct: The brownish tissue forming the adrenal cortex is scraped off and finely minced with scissors before homogenization; tissue Maxwell-Cohen (local slaughter house); host or cells: beef adrenal cortex, microsomal (100,000 x g) membranes
T1 sequence (P25104 1-359): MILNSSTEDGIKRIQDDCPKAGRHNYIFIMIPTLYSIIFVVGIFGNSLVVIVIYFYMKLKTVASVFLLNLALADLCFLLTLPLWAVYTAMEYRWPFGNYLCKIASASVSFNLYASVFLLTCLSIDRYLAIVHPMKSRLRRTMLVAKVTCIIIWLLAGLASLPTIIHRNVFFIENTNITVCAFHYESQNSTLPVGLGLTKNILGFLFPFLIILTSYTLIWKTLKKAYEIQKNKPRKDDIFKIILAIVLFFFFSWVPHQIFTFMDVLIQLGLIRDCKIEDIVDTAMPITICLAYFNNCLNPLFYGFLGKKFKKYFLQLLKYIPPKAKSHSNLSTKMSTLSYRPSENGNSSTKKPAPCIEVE
Put plainly: [125I](Sar1,Ile8)AngII receptor binding assay, bovine adrenal cortex membranes. Conditions: beef adrenal cortex membranes. The source says: Beef adrenals are obtained from a local slaughter house (Maxwell-Cohen). [^125 I](Sar^1,ILe^8)-AngII, S.A. 2200 Ci/mmole, is purchased from Dupont (NEN®, Boston, Mass.). All unlabeled AngII analogs, Dimethylsulfoxide (DMSO), nucleotides, bovine serum albumin (BSA) are purchased from Sigma Chemical Co., St. Louis, MO U.S.A.
Approximately sixteen (16) to twenty (20) beef adrenal glands are processed as follows: fresh adrenal glands received on crushed ice are cleaned of fatty tissues and the tough membranes encapsulating the glands are removed and discarded. The brownish tissue forming the adrenal cortex is scraped off and finely minced with scissors before homogenization. Care is taken to avoid contamination with medullary tissue during dissection. The scraped cortices are suspended in twenty volumes of an ice-cold buffer medium consisting of 10 mM Tris.HCl (pH 7.4 at 22° C.) and containing 1.0 mM EDTA and 0.2M sucrose. Unless otherwise indicated, all subsequent operations are done at 4° C. […] The homogenate is centrifuged first at low speed (3,000 ×g) for 10 min. […] A 100 ul aliquot is withdrawn and the protein content of the preparation is determined by the Lowry's method (Lowry, O.H., Rosebrough, N.F., Farr, A.L. and Randall, R.J., Protein measurement with Folin phenol reagent. J. Biol. Chem., […], 265-275, 1951). […]

Broadly, the IC50 is the concentration needed to halve the response being measured. Higher therefore signals a need for much substance.

`CCCCc1nc2ccc(C3=NN4CCCC4C3)cc2c(=O)n1Cc1ccc(-c2ccccc2-c2nnn[nH]2)cc1` (centres unmarked) [Example 10, 2-Butyl-6-(3a,4,5,6-tetrahydro-3H-pyrrolo[1,2-b]-pyrazol-2-yl)-3-[[2'-(1H-tetrazol-5-yl)[1,1'-biphenyl]-4-yl]methyl]-4(3H)-quinazolinone] displayed a half-inhibitory concentration (IC50) of 102 nM.

Molecule `CCCCc1nc2ccc(C3=NN4CCCCC4C3)cc2c(=O)n1Cc1ccc(-c2ccccc2-c2nnn[nH]2)cc1` (centres unmarked) [Example 11] came in with an IC50 of 56.4 nM. Against the preceding molecule, the IC50 is about 1.8-fold lower.
